# In patent US20250281380A1, “Skincare Formulation for Multi-Modal Reduction of Acetylcholine Concentration and Activity” (JAMRM, LLC, priority 2021, published 2025):
# Tested on: ACh release, MatTek FT full-thickness model of human skin (human epidermal keratinocytes and human dermal fibroblasts)
# Experiment: MatTek FT tissue model, ACh concentration in the tissue culture media
# Assay type: cell-based
# From the text: The MatTek FT™ tissue model was used to determine whether treatment with the test formulation would impact ACh release in vitro. The MatTek FT™ tissue model is a three-dimensional, full-thickness model of human skin formed from cultured human epidermal keratinocytes and human dermal fibroblasts. […] The MatTek FT™ tissue model allows for the performance of preclinical studies to evaluate mechanisms of action for skincare products.
# A first untreated tissue model served as a control sample and was maintained in a tissue culture media. A second tissue model was maintained in a tissue culture media and treated daily with the test formulation. A third tissue model was maintained in a tissue culture media and exposed to Neostigmine, an acetylcholinesterase inhibitor that prevents the breakdown of ACh in the tissue culture media. A fourth tissue model was maintained in a tissue culture media, treated daily with the test formulation, and exposed to Neostigmine. The amount of ACh created by each of the tissue models was determined by measuring the ACh concentration in the tissue culture media. The results can be seen in FIG. 1.
compound,measurement,setting,value
CN(C)C(=O)Oc1cccc([N+](C)(C)C)c1 [Neostigmine],accumulation of ACh (ACh concentration in tissue culture media),"FIG. 1, tissue model exposed to Neostigmine alone (third tissue model), time not stated",about 200 picograms per ml of solution
same,"ACh concentration at 72 hours, in words, effect of presence of neostigmine","FIG. 2, 72 hours, neostigmine in the untreated tissue model",relatively higher concentrations of ACh
